Here are results for one compound from paper PMC5766233, “Ternary copper(II) complex: NCI60 screening, toxicity studies, and evaluation of efficacy in xenograft models of nasopharyngeal carcinoma” (PLoS ONE, 2018).

Molecules are shown by their SMILES. pIC50: −log10 of the molar value. Like-named read-outs stand apart in the source and are kept apart here. Some results are limits rather than exact numbers.

One series concerns CYP3A. The series can be described thus: Cytochrome P450 induction assay in rat primary hepatocytes, CYP3A. The conditions noted are these: for Fold induction CYP3A: 3 days; for % of positive control CYP3A: positive control dexamethasone 30 μM. The procedure:
Assessment for potential drug-drug interaction is an important component of drug discovery and development. […] Most drug-drug interaction and drug metabolism occur in the hepatic cytochrome P450 (CYP) system. CYP is a superfamily of metabolizing enzymes located primarily in hepatocytes. Inhibition or induction of CYP enzymes is a mechanism for drug-drug interaction. In the current work, the inhibition and induction of CYP enzymes were investigated. CYP induction assay was performed using rat primary hepatocytes for CYP […] isoforms with dexamethasone (30 μM) and 3-methyl cholanthrene (1.0 μM) as […], respectively. Cytochrome CYP 3A enzymes are considered to be the most important enzymes catalyzing drug metabolism with broad substrate specificity while CYP 1A enzymes play key roles in the metabolic activation of aromatic hydrocarbons to carcinogenic metabolites. In orally administered anticancer drug, gut wall CYP 3A enzyme is considered important for drug-drug interactions and xenobiotic interactions.
5.0 x 10^5 viable rat hepatocytes were seeded into collagen-coated 24 well plate in 500 μL William’s medium E (Sigma Aldrich) per well and they were incubated at 37°C in a 5% CO2 humidified incubator. After an overnight incubation, the medium in each designated well was replaced with 500 μL of fresh medium containing the specified concentration of Cu(II) complex (1.0, 0.3 and 0.1 μM), dexamethasone (30 μM), 3-methyl cholanthrene (1.0 μM) as reference standards (positive controls) or fresh medium alone (vehicle control). The cells were treated for 3 consecutive days with daily replacement of fresh medium containing compounds. After incubation, the cells were washed with 1X HBSS and the medium was replaced with 300 μL of probe substrates (Midazolam at 10 μM and Phenacetin at 100 μM; prepared in HBSS). The cells were then incubated for a further 20 min at 37°C with mild shaking. The reaction was terminated by adding 600 μL of cold acetonitrile followed by scraping of cells. The above mixture in each well was transferred to a tube, and these tubes were centrifuged at 10,000 rpm for 10 min. The concentration/level of metabolites in the supernatant was monitored by LC-MS/MS.
The extent of fold induction as well as percent of positive control was calculated relative to basal control (untreated) by using the following formula.
%Activity=(averagearearatiooftreated/averagearearatioofbasalcontrol)x100
Foldinduction=%activity/100%ofpositivecontrol=foldinduction(Cu(II)treated)/foldinduction(referencestandardtreated)x100

For the next series, the target named is T1, CYP 2C9 (Homo sapiens, UniProt P11712).
T1 construct: Pooled human liver microsomes (Sekisui Xeno Tech, LLC., Kansas City, KS, USA) were incubated; tissue Sekisui Xeno Tech, LLC; host or cells: pooled human liver microsomes
The experiment in a line: CYP450 inhibition assay, pooled human liver microsomes. It is filed as in vitro ADME. The conditions noted are these: probe tolbutamide.

The target in another series is T2, CYP 2B6 (Homo sapiens, UniProt P20813).
T2 sequence (P20813 1-491): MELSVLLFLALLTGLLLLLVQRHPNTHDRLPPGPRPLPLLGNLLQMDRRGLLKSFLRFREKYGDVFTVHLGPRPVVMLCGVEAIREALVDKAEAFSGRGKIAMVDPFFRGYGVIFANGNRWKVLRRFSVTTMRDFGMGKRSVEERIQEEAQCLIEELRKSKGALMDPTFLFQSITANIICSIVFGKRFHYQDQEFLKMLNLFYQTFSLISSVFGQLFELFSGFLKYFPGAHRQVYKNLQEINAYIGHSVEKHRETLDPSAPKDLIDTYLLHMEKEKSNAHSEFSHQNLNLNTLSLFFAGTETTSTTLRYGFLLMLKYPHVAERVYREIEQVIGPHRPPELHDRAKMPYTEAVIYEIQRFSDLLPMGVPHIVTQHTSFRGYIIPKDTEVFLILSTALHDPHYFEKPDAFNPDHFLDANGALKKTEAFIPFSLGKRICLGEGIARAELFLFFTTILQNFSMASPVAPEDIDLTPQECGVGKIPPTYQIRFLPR
Described as above. The conditions noted are these: read-out: IC50 CYP 2B6; probe bupropion. As for the experimental part:
(§1) In the CYP inhibition assay, human liver microsomes were incubated with the Cu(II) complex or reference standard. The inhibitory effects of these compounds were investigated against the major CYP isoforms namely 1A2, 2C9, 2C19, 2D6, 2B6, 2C8 and 3A4 with their respective isoform probe substrates in one reaction mixture (pooled probe substrate format using LC-MS/MS).
(§2) Pooled human liver microsomes (Sekisui Xeno Tech, LLC., Kansas City, KS, USA) were incubated with different concentrations of Cu(II) complex or reference standards in buffer containing 0.1% DMSO for 10 min at 37°C and the residual enzyme activity was measured using pooled probe substrates method by pooled LC-MS/MS. Briefly, incubation mixtures were prepared in a total volume of 200 μL with final component concentrations as follows: 0.1 M potassium phosphate buffer (pH 7.4), 1.5 mM NADPH, and 0.25 mg/ml HLM. […] After 20 min of incubation, the reactions were terminated by addition of 200 μL ice-cold acetonitrile (Rankem, Avantor Performance Materials India Limited, Andhra Pradesh, India) containing telmisartan and carbamazepine as internal standards (all probe substrates and standards were from Sigma Aldrich). Each reaction mixture was centrifuged at 3,500 rpm for 5 min and the supernatant was subjected to LC-MS/MS analysis. The percent inhibition was calculated using the following equation: %Inhibition=100‑[(activityintestwells/activityinbasalcontrolwells)×100]

Another series deals with CYP 2C19 (Homo sapiens, UniProt P33261). Described as above. Conditions: read-out: IC50 CYP 2C19; probe S-mephenytoin. As for the experimental part:
as §1, §2

The target in the next series is T3, CYP 2C8 (Homo sapiens, UniProt P10632).
T3 sequence (P10632 1-490): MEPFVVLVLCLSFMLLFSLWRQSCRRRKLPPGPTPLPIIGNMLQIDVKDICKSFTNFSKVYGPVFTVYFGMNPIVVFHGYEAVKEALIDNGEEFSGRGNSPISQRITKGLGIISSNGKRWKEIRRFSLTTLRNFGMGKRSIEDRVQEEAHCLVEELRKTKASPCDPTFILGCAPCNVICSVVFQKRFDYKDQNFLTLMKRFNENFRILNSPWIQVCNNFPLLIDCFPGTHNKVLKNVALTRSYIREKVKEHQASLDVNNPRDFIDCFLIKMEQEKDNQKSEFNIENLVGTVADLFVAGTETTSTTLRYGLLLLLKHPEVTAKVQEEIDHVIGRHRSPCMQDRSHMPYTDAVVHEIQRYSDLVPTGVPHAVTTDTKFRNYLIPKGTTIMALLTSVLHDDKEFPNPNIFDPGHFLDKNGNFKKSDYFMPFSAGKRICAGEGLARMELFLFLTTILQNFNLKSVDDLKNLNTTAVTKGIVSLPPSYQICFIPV
Described as above. The conditions noted are these: read-out: IC50 CYP 2C8; probe amodiaquine. As for the experimental part:
as §1, §2

In series [1] the test system is NCI60 human cancer cell line panel.

T1 sequence (P11712 whole entry): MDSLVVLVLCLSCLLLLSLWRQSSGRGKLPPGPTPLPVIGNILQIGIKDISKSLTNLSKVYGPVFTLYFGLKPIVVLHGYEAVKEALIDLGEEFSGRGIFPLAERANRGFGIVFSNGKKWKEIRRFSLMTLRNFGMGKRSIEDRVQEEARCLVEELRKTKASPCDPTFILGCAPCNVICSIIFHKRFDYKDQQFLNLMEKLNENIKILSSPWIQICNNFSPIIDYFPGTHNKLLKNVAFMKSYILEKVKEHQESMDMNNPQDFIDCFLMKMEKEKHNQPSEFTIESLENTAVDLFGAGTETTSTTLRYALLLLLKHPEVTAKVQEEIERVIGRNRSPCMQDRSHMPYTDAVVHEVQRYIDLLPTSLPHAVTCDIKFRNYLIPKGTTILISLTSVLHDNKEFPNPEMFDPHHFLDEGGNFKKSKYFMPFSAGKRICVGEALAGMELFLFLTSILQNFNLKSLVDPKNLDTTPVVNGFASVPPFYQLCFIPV
Chain of CYP 2C19 (P33261 whole entry): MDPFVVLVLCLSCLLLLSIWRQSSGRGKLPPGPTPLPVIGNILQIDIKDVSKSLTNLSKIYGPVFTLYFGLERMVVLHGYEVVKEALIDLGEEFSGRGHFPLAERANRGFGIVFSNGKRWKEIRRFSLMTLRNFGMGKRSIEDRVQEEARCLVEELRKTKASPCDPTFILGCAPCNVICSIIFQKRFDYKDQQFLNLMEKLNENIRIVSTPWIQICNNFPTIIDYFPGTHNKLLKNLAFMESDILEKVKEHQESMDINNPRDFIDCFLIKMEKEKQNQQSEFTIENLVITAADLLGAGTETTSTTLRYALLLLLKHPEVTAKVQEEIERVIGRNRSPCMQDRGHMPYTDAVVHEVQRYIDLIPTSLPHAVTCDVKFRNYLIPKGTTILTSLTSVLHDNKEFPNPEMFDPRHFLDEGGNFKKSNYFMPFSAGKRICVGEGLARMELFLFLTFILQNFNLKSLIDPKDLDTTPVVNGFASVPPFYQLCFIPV

Turning to `CC(C)(N)C(=O)[O-].O.O=[N+]([O-])[O-].[Cu+2].c1cnc2c(c1)ccc1cccnc12` [Cu(II) complex, [Cu(phen)(C-dmg)(H2O)]NO3], the “Fold induction CYP3A” value with CYP3A (0.1 μM) came out at 1.3; in the series on CYP3A (0.3 μM), 1.2; in the series on CYP3A (1.0 μM), 0.8. Besides, the “% of positive control CYP3A” value in the series on CYP3A (0.1 μM) is listed as 4.7%; in the series with CYP3A (0.3 μM), 4.3%; in the series with CYP3A (1.0 μM) it was 3.0%. Moreover, in the series on CYP3A (1.0 μM, rat hepatocytes in the induction assay), the Cell death observed entry is given as “** Cell death observed (approximately 30%)”. Besides, the “induction, % of positive control, CYP3A” value with CYP3A (0.1-1.0 μM) is below 13%. Besides, the pIC50 at CYP 2C9 was 5.07; at CYP 2B6, 5.12; on CYP 2C19 it was 4.99; on CYP 2C8, 4.99. Also, the CC50 was above 100 µM in series [1]; 1 to 10 µM in series [1] (read-out: LC50, all renal cell lines); above 100 µM in series [1] (read-out: LC50, leukemia panel (CCRF-CEM, HL-60(TB), K-562, MOLT-2, RPMI-8226, SR)); 9.12 µM in series [1] (read-out: mean LC50, NCI60 panel, 48 h). The “cytotoxicity compared with cisplatin (mean LC50)” value in series [1] (NCI60 panel) is recorded as “fivefold more cytotoxic”. In addition, the GI50 in series [1] (read-out: mean GI50, NCI60 panel, 48 h) stood at 1.51 µM.

One may read the pIC50 as −log10 of the IC50, conventionally taken in molar units. One may read the GI50 as the concentration at which growth is held to half of that of the control.
